Measured values taken from patent publication US9056835B2, “LPA2 receptor-specific benzoic acid derivatives” (University of Tennessee Research Foundation, priority 2012, dated 2015).

How the values were obtained:
Format in all cases: cell-based
[1] = target: T1, LPA4 (Homo sapiens, UniProt Q99677); test: LPA receptor-mediated Ca2+ mobilization assay, LPA4; settings: for EC50: agonist, Ca2+ mobilization
T1 construct: expressed in transfected cells
Procedure: (§1) Similarity searches were performed separately using each fingerprint to quantitate similarity. Hits meeting the 80% similarity threshold from each search were ranked based on the Tanimoto coefficient measure of similarity to a target molecule NSC12404, and the top 75 unique hits from each fingerprint search were selected for further analysis. The 225 compounds selected for further analysis were clustered based on Tanimoto coefficients calculated using Molecular ACCess System-key fingerprints (MACCS keys) and evaluated using the diversity subset function implemented in MOE. This selected a diverse subset of 27 compounds for biological evaluation by choosing the middle compounds in each cluster. These 27 compounds were tested in Ca^2+ mobilization assays at a concentration of 10 μM using stable cell lines individually expressing LPA2 and also in vector-transfected control cells. Hits activating LPA2 were further tested using cells expressing the other established and putative LPA GPCRs. […] They arbitrarily selected GRI977143 for further characterization in cell-based assays.
(§2) J Biol Chem (2009) 284(25): 17304-17319). […] The cells were loaded with Fura-2-acetoxymethyl esther (Fura-2/AM) in Krebs buffer containing 0.01% pluronic acid for 30 min and rinsed with Krebs buffer before measuring Ca^2+ mobilization. The ratio of peak emissions at 510 nm after 2 min of ligand addition was determined for excitation wavelengths of 340 nm/380 nm. All samples were run in quadruplicate. […] The half maximally effective concentration (EC50), and inhibitory constant (Ki) values were calculated by fitting a sigmoid function to dose-response data points using KaleidaGraph software (version 4.1, Synergy Software; […]).
(§3) Mouse embryonic fibroblast (MEF) cells were isolated from E13.5 LPA1&2 double knockout (DKO) embryos. MEFs were transduced with empty vector or LPA2-containing lentiviruses and selected with 1.5 μg/ml puromycin. Cells were maintained in Dulbecco's modified Eagle medium (DMEM) supplemented with 10% (V/V) fetal bovine serum (FBS), 2 mM L-glutamine, 100 U/mL penicillin, and 100 μg/mL streptomycin. Serum-free medium contained 0.1% (W/V) BSA in DMEM. The rat intestinal epithelial cell line 6 (IEC-6) was obtained from the American Type Culture Collection (Rockville, Md.) at passage 13; passages 16-21 were used in all experiments. IEC-6 cells were maintained in a humidified 37° C. incubator in an atmosphere of 90% air and 10% CO2. Growth medium consisted of DMEM supplemented with 5% heat inactivated FBS, 10 μg/mL insulin, and 50 μg/mL gentamycin. The composition of the serum-starvation medium was the same as that of the full growth medium except that it contained no FBS. The McArdle rat hepatoma cell line (RH7777) stably expressing LPA2 receptors was a gift from Dr. Fumikazu Okajima (Gunma University, Maebashi, Japan). RH7777 cells stably expressing LPA1 or LPA3 receptors were generated in-house and had been characterized earlier. Wild type and LPA receptor (LPAR) stably transfected RH7777 cells were grown in DMEM supplemented with 10% FBS and 2 mM L-glutamine in the presence of 250 μg/ml G418. Chinese hamster ovary (CHO) cells stably expressing either vector or LPA4 receptor were a kind gift from Dr. Takao Shimizu (Tokyo University; Tokyo, Japan). Cells were cultured in Ham's F12 medium containing 10% FBS, 2 mM L-glutamine, and 350 μg/ml G418. Rat neuroblastoma cells (B103) were transduced with the lentivirus harboring wild type of FLAG-LPA5 and selected with puromycin to establish the stable cell lines. The stable cells were maintained in DMEM supplemented with 10% FBS and 0.4 μg/ml puromycin. GPR87- and P2Y10-expressing CHO cells and vector-transfected control cells were a gift from Dr. Norihisha Fujita (Ritsumeikan University; Shiga, Japan).

[2] = target: T2, LPA5 (Homo sapiens, UniProt Q9H1C0); test: LPA receptor-mediated Ca2+ mobilization assay, LPA5; settings: agonist
T2 construct: FLAG (N); expressed in transfected cells; host or cells: B103 rat neuroblastoma, lentiviral transduction, puromycin selection
T2 sequence (Q9H1C0 whole entry, species assumed): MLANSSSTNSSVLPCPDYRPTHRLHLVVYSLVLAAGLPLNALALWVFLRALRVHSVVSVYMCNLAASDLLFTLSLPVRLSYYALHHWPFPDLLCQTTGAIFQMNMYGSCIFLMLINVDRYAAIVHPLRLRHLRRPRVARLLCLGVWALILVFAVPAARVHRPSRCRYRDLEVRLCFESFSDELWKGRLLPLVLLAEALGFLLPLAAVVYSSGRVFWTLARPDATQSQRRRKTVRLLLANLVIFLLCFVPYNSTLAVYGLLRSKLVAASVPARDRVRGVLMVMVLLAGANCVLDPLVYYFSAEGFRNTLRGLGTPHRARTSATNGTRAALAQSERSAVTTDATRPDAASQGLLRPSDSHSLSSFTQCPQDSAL
Procedure: as §1, §2
Mouse embryonic fibroblast (MEF) cells were isolated from E13.5 LPA1&2 double knockout (DKO) embryos. MEFs were transduced with empty vector or LPA2-containing lentiviruses and selected with 1.5 μg/ml puromycin. Cells were maintained in Dulbecco's modified Eagle medium (DMEM) supplemented with 10% (V/V) fetal bovine serum (FBS), 2 mM L-glutamine, 100 U/mL penicillin, and 100 μg/mL streptomycin. Serum-free medium contained 0.1% (W/V) BSA in DMEM. The rat intestinal epithelial cell line 6 (IEC-6) was obtained from the American Type Culture Collection (Rockville, Md.) at passage 13; passages 16-21 were used in all experiments. IEC-6 cells were maintained in a humidified 37° C. incubator in an atmosphere of 90% air and 10% CO2. Growth medium consisted of DMEM supplemented with 5% heat inactivated FBS, 10 μg/mL insulin, and 50 μg/mL gentamycin. The composition of the serum-starvation medium was the same as that of the full growth medium except that it contained no FBS. […]

[3] = target: P2Y10 (Homo sapiens, UniProt O00398); test: LPA receptor-mediated Ca2+ mobilization assay, P2Y10; settings: for inhibition of P2Y10 Ca2+ response: 10 μM, ~EC75 LPA 18:1; for P2Y10 Imax (%): inhibition by 10 μM compound of ~EC75 LPA 18:1 Ca2+ response; for EC50: agonist, Ca2+ mobilization
P2Y10, sequence (O00398 whole entry): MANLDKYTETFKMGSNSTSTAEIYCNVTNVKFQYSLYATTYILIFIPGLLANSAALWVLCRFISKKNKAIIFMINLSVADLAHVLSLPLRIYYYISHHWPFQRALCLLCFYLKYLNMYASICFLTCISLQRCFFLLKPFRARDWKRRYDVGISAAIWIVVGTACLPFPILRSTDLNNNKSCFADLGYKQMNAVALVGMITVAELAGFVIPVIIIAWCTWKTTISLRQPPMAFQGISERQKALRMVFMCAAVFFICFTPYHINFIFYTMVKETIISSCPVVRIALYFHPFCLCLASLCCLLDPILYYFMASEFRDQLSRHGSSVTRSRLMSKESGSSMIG
Procedure: as §1, with “GPCRs. Experimental testing of the selected compounds identified the three new selective LPA2 agonists: GRI977143, H2L5547924, and H2L5828102.” for “GPCRs.”
as §2
as §3, with “Shiga, Japan). […]” for “Shiga, Japan).”

T1 sequence (Q99677 whole entry, species assumed): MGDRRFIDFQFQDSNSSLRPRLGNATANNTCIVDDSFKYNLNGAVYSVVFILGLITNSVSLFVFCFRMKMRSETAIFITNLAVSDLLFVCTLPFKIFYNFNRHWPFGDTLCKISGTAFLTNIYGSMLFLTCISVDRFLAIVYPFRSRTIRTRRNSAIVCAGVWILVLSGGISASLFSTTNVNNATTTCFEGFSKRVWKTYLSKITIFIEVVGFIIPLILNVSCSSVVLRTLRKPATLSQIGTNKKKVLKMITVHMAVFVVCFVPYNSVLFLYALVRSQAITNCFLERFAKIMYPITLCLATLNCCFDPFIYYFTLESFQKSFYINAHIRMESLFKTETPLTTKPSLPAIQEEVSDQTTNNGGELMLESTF

| Compound | inhibition of LPA4 Ca2+ response ([1]; 10 μM, ~EC75 LPA 18:1) | LPA4 Imax (%) ([1]; inhibition by 10 μM compound of ~EC75 LPA 18:1 Ca2+ response) | EC50 [2] | inhibition of P2Y10 Ca2+ response [3] | P2Y10 Imax (%) [3] | EC50 [3] | EC50 [1] |
| --- | --- | --- | --- | --- | --- | --- | --- |
| O=C(O)c1cc(Cl)c(Cl)cc1C(=O)Nc1ccc2c(c1)C(=O)c1ccccc1-2 [Compound H2L5547924] | partially inhibited | 51% | > 10 µM | partially inhibited | 34% |  |  |
| CCCCCCCC/C=C\CCCCCCCC(=O)OC[C@@H](O)COP(=O)(O)O [LPA 18:1, Lysophosphatidic acid (18:1)] |  |  |  |  |  | 0.029 µM |  |
| octadecenyl thiophosphate [OTP] |  |  | 0.003 µM |  |  |  | 2 µM |
| O=C(O)c1ccccc1C(=O)Nc1ccc2c(c1)C(=O)c1ccccc1-2 [NSC12404] |  |  | > 10 µM |  |  | > 10 µM | > 10 µM |
| O=C(O)c1ccccc1C(=O)Nc1ccc2c(c1)C(=O)c1ccccc1C2=O [Compound H2L5828102] |  |  | > 10 µM | partially inhibited | 39% |  | > 10 µM |
| O=C(O)c1ccccc1SCCCN1C(=O)c2cccc3cccc(c23)C1=O [GRI977143] |  |  |  |  |  | > 10 µM | > 10 µM |
